From patent US11760775B2, “Steroids and protein-conjugates thereof” (Regeneron Pharmaceuticals, Inc., priority 2016, dated 2023)
Values after ≈ are worked out from the molar mass of the structure shown. Values joined by “and” are separate entries in the source; they are usually repeats but may differ in a detail not shown here. Equal values may be shown once. Where a name gives a salt, the structure may show the parent alone. Read-outs that look alike come from different tables or passages of the source.

Legend:
CD11c+ splenic DCs = assay: Ex vivo LPS-induced cytokine production in mouse splenic CD11c+ dendritic cells; type: cell-based, C57Bl/6 mice; set-up: TNF-a / IL-12p70 / IL-1b / IL-6 / KC-GRO: unit not given here
Method: (§1) Supernatants were collected into 96-well round bottom tissue culture plates 24 hours post-LPS challenge and stored at −20° C. until further analysis. Cytokine concentrations in the supernatants were measured using a Pro-inflammatory Panel 1 (mouse) multiplex immunoassay kit (MesoScale Discovery, Cat #K15048D) according to manufacturer's instructions or Pro-inflammatory Panel 1 (human) multiplex immunoassay kit (MesoScale Discovery, Cat #K15049D). In brief, 50 μL/well of calibrators and samples (diluted in Diluent 1:2) were added to the plates pre-coated with capture antibodies and incubated at room temperature while shaking at 700 rpm for 2 hours. The plates were then washed 3 times with 1×PBS containing 0.05% (w/v) Tween-20, followed by the addition of 25 μL of Detection Antibody Solution diluted in Diluent 45. After 2-hour incubation at room temperature while shaking, the plates were washed 3 times, and 150 μL of 2× Read Buffer was added to each well. Electrochemiluminescence was immediately read on a MSD Spector® instrument. Data analysis was performed using GraphPad Prism™ software. Statistical significance within the groups was determined by one-way Anova with Turkey's multiple comparison post-test and standard error of mean (SEM±) calculated.

[1] = tested on: GR activation in 293/PRLR/GRE-Luc cells (HEK293/9xUAS-Luc2P/pBind-GR/PRLR-HA high cells); assay: GR co-activator luciferase reporter cell based assay in 293/PRLR/GRE-Luc cells; set-up: species or system human; settings: for EC50: Homo sapiens; for HEK293/9xUAS-Luc2P/pBind-GR/PRLR-HA high cells activation relative to Budesonide: fold activation vs Budesonide
Outline: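 HEK293 cells stably expressing PRLR, a Gal4–GR LBD chimera and a 9×Gal4UAS-Luc2P reporter were seeded at 20,000 per well and treated with free steroid or anti-PRLR steroid ADC. Luciferase (One-Glo) was read as RLU, and EC50 was fitted by four-parameter logistic over 10 points. Minimal activation means under 10% of free-payload maximum.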

[2] = tested on: human monocyte derived-DC; assay: Ex vivo LPS-induced cytokine production in human monocyte derived DCs; type: cell-based; set-up: IL-6 / IL-8 / TNF-a / IL-12p70 / IL-1b: unit not given here
Method: The complete-RPMI with IL4 and GM-CSF was changed every three days. […]
as §1

[3] = tested on: GR activation in 293/GRE-Luc cells (293_PBind GR/UAS-Luc); assay: Luciferase reporter assay in antigen negative 293/GRE-Luc cells; type: cell-based, human; settings: Homo sapiens, 72 h, read-out: EC50 in 293/GRE-Luc (M)
[4] = tested on: LPS-induced cytokine release (TNF-α); assay: Mouse model of LPS induced cytokine release (TNF-α in plasma); type: in vivo, C57BL/6j mice; settings: for Inhibition of TNF-α production: 5 mpk ip before LPS challenge, plasma at 2 hr time point; for TNF-a: plasma 2 hr post LPS challenge, individual mice
[5] = Pharmacokinetics of 4b and 6-I in mice (blood concentration-time); type: in vivo, C57BL/6j mice; set-up: Tmax: unit not given here; settings: for AUC(0-inf) / AUC(0-t) / Cmax / half-life: in vivo; for half-life: read-out: Terminal t1/2 (converted)
[6] = Solubility in water and DMSO/water
[7] = HEK293, read-out: HEK293/9xUAS-Luc2P/pBind-GR/PRLR-HA high cells EC50
[8] = male, C57BL/6, mouse, ip, 1 mg/kg
[9] = mouse, IP, 1 mg/Kg in male C57BL/6 mice, Mean

CCCC1O[C@@H]2C[C@H]3[C@@H]4C[C@H](F)C5=CC(=O)C=C[C@]5(C)[C@@]4(F)[C@@H](O)C[C@]3(C)[C@]2(C(=O)CN)O1 (stereo partly drawn) [Compound 4b, (1S,2S,4R,6R,8S,9S,11S,12R,13S,19S)-8-(2-Aminoacetyl)-12,19-difluoro-11-hydroxy-9,13-dimethyl-6-propyl-5,7-dioxapentacyclo[10.8.0.0^2,90.0^4,80.0^13,18]icosa-14,17-dien-16-one; trifluoroacetic Acid Salt]
IL-1b (CD11c+ splenic DCs; 10 nM + LPS): 6.32 ± 0.83
IL-6 (CD11c+ splenic DCs; 10 nM + LPS): 184.54 ± 21.59
IL-12p70 (CD11c+ splenic DCs; 10 nM + LPS): 3.84 ± 2.88
KC-GRO (CD11c+ splenic DCs; 10 nM + LPS): 186.57 ± 15.71
TNF-a (CD11c+ splenic DCs; 10 nM + LPS): 146.46 ± 18.66
LPS-induced cytokine responses in CD11c+ DCs (CD11c+ splenic DCs; 10 nM and 100 nM for 24 hours before LPS 10 ng/mL): significantly decreased LPS-induced cytokine responses
IL-1b (CD11c+ splenic DCs; 10 nM, no LPS): 5.22 ± 0.11
IL-6 (CD11c+ splenic DCs; 10 nM, no LPS): 47.90 ± 4.55
IL-12p70 (CD11c+ splenic DCs; 10 nM, no LPS): 5.24 ± 1.12
KC-GRO (CD11c+ splenic DCs; 10 nM, no LPS): 62.85 ± 6.51
TNF-a (CD11c+ splenic DCs; 10 nM, no LPS): 0 ± 0
IL-1b (CD11c+ splenic DCs; 100 nM + LPS): 4.80 ± 0.99
IL-6 (CD11c+ splenic DCs; 100 nM + LPS): 201.10 ± 20.96
IL-12p70 (CD11c+ splenic DCs; 100 nM + LPS): 8.21 ± 2.79
KC-GRO (CD11c+ splenic DCs; 100 nM + LPS): 211.96 ± 25.23
TNF-a (CD11c+ splenic DCs; 100 nM + LPS): 193.29 ± 25.56
IL-1b (CD11c+ splenic DCs; 100 nM, no LPS): 5.65 ± 0.18
IL-6 (CD11c+ splenic DCs; 100 nM, no LPS): 63.87 ± 4.78
IL-12p70 (CD11c+ splenic DCs; 100 nM, no LPS): 6.43 ± 0.67
KC-GRO (CD11c+ splenic DCs; 100 nM, no LPS): 84.30 ± 6.06
TNF-a (CD11c+ splenic DCs; 100 nM, no LPS): 0 ± 0
EC50 of GRE-Luc activation ([1]; 293/PRLR/GRE-Luc cells, 72 hours): better IC50 value than Budesonide and Dexamethasone
EC50 ([1]; HEK293, read-out: EC50 in 293/PRLR/GRE-Luc (M), 72 hrs of incubation): < 5e-09 M
EC50 [1, 7]: < 1e-08 M
HEK293/9xUAS-Luc2P/pBind-GR/PRLR-HA high cells activation relative to Budesonide [1]: Full
Pro-inflammatory cytokine production ([2]; Condition 1: entire 7-day conditioning period): significantly reduced pro-inflammatory cytokine production
IL-1b ([2]; Condition 1, 10 nM + LPS): 1.18 ± 0.11
IL-6 ([2]; Condition 1, 10 nM + LPS): 325.46 ± 2.12
IL-8 ([2]; Condition 1, 10 nM + LPS): 8670.27 ± 268.97
IL-12p70 ([2]; Condition 1, 10 nM + LPS): 1.05 ± 0.08
TNF-a ([2]; Condition 1, 10 nM + LPS): 117.75 ± 6.63
IL-1b ([2]; Condition 1, 10 nM, no LPS): 0.61 ± 0.007
IL-6 ([2]; Condition 1, 10 nM, no LPS): 2.23 ± 0.002
IL-8 ([2]; Condition 1, 10 nM, no LPS): 166.99 ± 2.01
IL-12p70 ([2]; Condition 1, 10 nM, no LPS): 0.58 ± 0.002
TNF-a ([2]; Condition 1, 10 nM, no LPS): 1.28 ± 0.087
IL-1b ([2]; Condition 1, 100 nM + LPS): 1.01 ± 0.07
IL-6 ([2]; Condition 1, 100 nM + LPS): 159.32 ± 7.31
IL-8 ([2]; Condition 1, 100 nM + LPS): 8461.59 ± 522.77
IL-12p70 ([2]; Condition 1, 100 nM + LPS): 0.50 ± 0.19
TNF-a ([2]; Condition 1, 100 nM + LPS): 123.31 ± 0.11
IL-1b ([2]; Condition 1, 100 nM, no LPS): 0.641 ± 0.15
IL-6 ([2]; Condition 1, 100 nM, no LPS): 3.45 ± 0.13
IL-8 ([2]; Condition 1, 100 nM, no LPS): 136.50 ± 0.87
IL-12p70 ([2]; Condition 1, 100 nM, no LPS): 0.66 ± 0.03
TNF-a ([2]; Condition 1, 100 nM, no LPS): 1.46 ± 0.10
Production of IL12p70, IL6 and TNF-α ([2]; Condition 2: conditioning of mature monocyte-derived DCs): significantly decreased the production of IL12p70, IL6 and TNF-α
IL-1b ([2]; Condition 2, 10 nM + LPS): 30.10 ± 0.93
IL-6 ([2]; Condition 2, 10 nM + LPS): 5124.75 ± 114.8
IL-8 ([2]; Condition 2, 10 nM + LPS): 3003.52 ± 212.16
IL-12p70 ([2]; Condition 2, 10 nM + LPS): 4.81 ± 0.63
TNF-a ([2]; Condition 2, 10 nM + LPS): 874.18 ± 30.46
IL-1b ([2]; Condition 2, 10 nM, no LPS): 0.59 ± 0.005
IL-6 ([2]; Condition 2, 10 nM, no LPS): 12.87 ± 0.312
IL-8 ([2]; Condition 2, 10 nM, no LPS): 274.75 ± 1.75
IL-12p70 ([2]; Condition 2, 10 nM, no LPS): 0.60 ± 0.01
TNF-a ([2]; Condition 2, 10 nM, no LPS): 2.03 ± 0.14
IL-1b ([2]; Condition 2, 100 nM + LPS): 18.20 ± 1.04
IL-6 ([2]; Condition 2, 100 nM + LPS): 4680.03 ± 104.90
IL-8 ([2]; Condition 2, 100 nM + LPS): 2735.36 ± 87.88
IL-12p70 ([2]; Condition 2, 100 nM + LPS): 2.03 ± 0.16
TNF-a ([2]; Condition 2, 100 nM + LPS): 696.26 ± 75.10
IL-1b ([2]; Condition 2, 100 nM, no LPS): 0.59 ± 0.03
IL-6 ([2]; Condition 2, 100 nM, no LPS): 11.25 ± 0.82
IL-8 ([2]; Condition 2, 100 nM, no LPS): 317.46 ± 14.83
IL-12p70 ([2]; Condition 2, 100 nM, no LPS): 0.61 ± 0.02
TNF-a ([2]; Condition 2, 100 nM, no LPS): 1.37 ± 0.251
EC50 [3]: < 5e-09 M
Inhibition of TNF-α production [4]: significantly inhibited TNF-α production
TNF-a ([4]; 5MPK ip (−2 h) prior to LPS, trifluoroacetic Acid Salt): 56.5 pg/mL and 10.4 pg/mL and 274.8 pg/mL
AUC(0-inf) [5, 8]: 89.2 ng·h/mL
AUC(0-t) [5, 8]: 84.6 ng·h/mL
Cmax [5, 8]: 39.4 ng/mL
half-life [5, 9]: 1.69 h

CCCC1O[C@@H]2C[C@H]3[C@@H]4C[C@H](F)C5=CC(=O)C=C[C@]5(C)[C@@]4(F)[C@@H](O)C[C@]3(C)[C@]2(C(=O)COc2ccc(N)cc2)O1 (stereo partly drawn) [Compound 6-I, (1S,2S,4R,8S,9S,11S,12R,13S,19S)-8-[2-(4-Aminophenoxy)acetyl]-12,19-difluoro-11-hydroxy-9,13-dimethyl-6-propyl-5,7-dioxapentacyclo[10.8.0.0^2,90.0^4,80.0^13,118]icosa-14,17-dien-16-one]
EC50 [1, 7]: < 1e-08 M
HEK293/9xUAS-Luc2P/pBind-GR/PRLR-HA high cells activation relative to Budesonide [1]: Full
Inhibition of TNF-α production [4]: time dependent inhibition
TNF-a ([4]; 5MPK ip (−2 h) prior to LPS): 110.6 pg/mL and 30.8 pg/mL and 240.8 pg/mL
TNF-a ([4]; 5MPK ip (−24 h) prior to LPS): 23.1 pg/mL and 997.3 pg/mL and 55.4 pg/mL
TNF-a ([4]; 5MPK ip (−48 h) prior to LPS): 1280.1 pg/mL and 1149.4 pg/mL and 750.0 pg/mL
Tmax ([5]; IP, 1 mg/Kg in male C57BL/6 mice, Mean): 0.250
AUC(0-inf) ([5]; mouse, IP, 1 mg/Kg in male C57BL/6 mice, Mean, read-out: AUCINF): 113 ng·h/mL
AUC(0-t) ([5]; mouse, IP, 1 mg/Kg in male C57BL/6 mice, Mean, read-out: AUClast): 107 ng·h/mL
Cmax ([5]; mouse, IP, 1 mg/Kg in male C57BL/6 mice, Mean, read-out: Cmax): 44.8 ng/mL
half-life [5, 9]: 1.91 h

CCC[C@@H]1O[C@@H]2C[C@H]3[C@@H]4CCC5=CC(=O)C=C[C@]5(C)[C@H]4[C@@H](O)C[C@]3(C)[C@]2(C(=O)COc2ccc(NC(=O)[C@H](C)NC(=O)[C@@H](NC(=O)CCOCCOCCOCCOCCNC(=O)CCC(=O)N3Cc4ccccc4C#Cc4ccccc43)C(C)C)cc2)O1 [LP7]
solubility ([6]; 20% DMSO in water, aqueous with cosolvent or surfactant or cyclodextrin): 60 µg/mL (≈ 48.9 µM)
solubility ([6]; 30% DMSO in water, aqueous with cosolvent or surfactant or cyclodextrin): 70 µg/mL (≈ 57.1 µM)
solubility ([6]; water): < 100 µg/mL

CCC[C@@H]1O[C@@H]2C[C@H]3[C@@H]4CCC5=CC(=O)C=C[C@]5(C)[C@H]4[C@@H](O)C[C@]3(C)[C@]2(C(=O)COc2ccc(NC(=O)[C@H](C)NC(=O)[C@@H](NC(=O)[C@@H](CCCCNC(=O)COC3CCCCCc4c3nnn4CC3OC4OC5C(CO)OC(OC6C(CO)OC(OC7C(CO)OC(OC8C(CO)OC(OC9C(CO)OC(OC3C(O)C4O)C(O)C9O)C(O)C8O)C(O)C7O)C(O)C6O)C(O)C5O)NC(=O)CCOCCOCCOCCOCCNC(=O)CCC(=O)N3Cc4ccccc4C#Cc4ccccc43)C(C)C)cc2)O1 (some centres unmarked) [LP16]
solubility ([6]; 10% DMSO in water, aqueous with cosolvent or surfactant or cyclodextrin): 100 µg/mL (≈ 39.7 µM)
